Several values for one entry are separate records, joined by “and”; a condition that tells them apart may be missing. Identical values can stand only once. Entries after “also recorded” stand apart in the source; their conditions may differ.
Tests used:
[1] = target: Prodan-G-actin (Oryctolagus cuniculus, UniProt P68135); experiment: Kinetic analysis of binding to Prodan-G-actin (stopped-flow and slow phase); set-up: F-actin is purified from rabbit skeletal muscle using a standard protocol; Prodan (Acrylodan) fluorophore, chemical label on the thiol of Cys374; from tissue; host or cells: rabbit skeletal muscle; species or system rabbit
Method: FIG. 3: Kinetic analyses of KabC binding of Prodan labeled G-actin. (A-B). Prodan-actin (0.1 μM) and KabC, loaded into separated syringes, were rapidly mixed within ˜1 msec dead-time. The concentrations of KabC were 0.0 μM (a), 1.0 μM (b), 1.5 μM (c), 2.0 μM (d) and 2.5 μM (data not shown), respectively. The decreases in emission intensity were well fitted with single exponential functions to determine the observed rate, kobs. The observed rates are plotted as a function of the [KabC] in panel (B).
Kinetic analysis of binding reactions. The kinetics of the KabC interaction with Prodan-actin is determined, using an Applied Photophysics SX.18MV Stopped-flow spectrometer, by following the decrease in the emission intensity of Prodan-actin at 25° C. Prodan was excited at 385 nm and emission was collected with a 470 nm (+/−5 nm) band-pass filter. In all cases the decrease in emission intensity was best fit with a single exponential function, which was then used to determine the observed rate, kobs. Kinetic constants of on rate (kon) and off rate (koff) were calculated according to the following equation: kobs=kon[KabC]+koff. The kinetics of the slower binding step observed in the interaction of KabC with Prodan-G-actin interaction is measured by measuring the ratio of fluorescence signals at 465 nm and 530 nm. The decay of this ratio is fit using a single exponential rate.

[2] = system: NBT-II cells; experiment: Effect of macrolides on NBT-II cells (live cell microscopy); assay type: cell-based, rat
Method: FIG. 7: Effect of KabC on NBT-II cells. NBT-II cells are imaged after 16 hours of drug treatment. KabC concentrations: (A), Control; (B), 10 nM; (C), 100 nM and (D), 1000 nM.
Cell Culture: Rat bladder NBT-II carcinoma cells and mouse NIH 3T3 fibroblast cells are maintained and treated with external drugs as described in Choidas et al (1998).
Live cell microscopy: A multi-model microscope workstation was used to image phase contrast and fluorescence images of living cells (Choidas et al, 1998). Cells are maintained at 37° in a Hepes based culture medium in a Bioptechs cell perfusion chamber (Choidas et al, 1998).

Question: Which results are given for Kabiramide C [KabC]?
Answer: binding steps in reaction with G-actin [1]: two-step reaction; koff ([1]; Prodan-actin 0.1 μM, Y-intercept of kobs vs [KabC]): 5.6 s⁻¹; kon ([1]; Prodan-actin 0.1 μM, slope of kobs vs [KabC]): 5.45e+07 M⁻¹ s⁻¹; rate of second, slower phase of G-actin binding ([1]; decrease at 465 nm relative to red edge): 0.008 s⁻¹ and 0.005 s⁻¹; rate of primary binding event ([1]; fluorescence quenching of Prodan-actin): 30 s⁻¹; Kd ([1]; koff/kon, read-out: dissociation constant (Kd) from kinetic constants): ~0.1 µM; concentration at which cytotoxic effects are seen [2]: > 10 nM; cytotoxic activity on NBT II epithelia cells [2]: concentration dependent cytotoxic activity; cell phenotype ([2]; 10 nM, >12 hours): fail to complete cytokinesis and are immotile; cell phenotype ([2]; 100 nM): the cells lose control of contractile functions and have enlarged vesicles; cell phenotype ([2]; 1 μM or higher): complete breakdown of their actin cytoskeleton and die within a few hours; time to cell death ([2]; 1000 nM): 8˜12 hours; cell phenotype ([2]; 10˜100 nM): an increase in the number of blebs, a breakdown in the adherens junction and a cytokinesis defect; also recorded: cytoskeleton-linked phenotypes

— patent publication US7301020B2, “Macrolide analogs and methods for identifying same” (priority 2003, dated 2007)
